From PubChem BioAssay (NCI)
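How tested: cells in 96-well plates exposed to compound for 48 hours at five concentrations. GI50: concentration for 50% inhibition of growth. TGI denotes the concentration required for complete inhibition of growth.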

How the values were obtained:
Assay in all cases: growth of human tumour cells (NCI), 48 h
CAKI-1 renal = tested on: CAKI-1 renal
HOP-92 NSCLC = tested on: HOP-92 NSCLC
HS 578T breast = tested on: HS 578T breast
NCI-H522 lung = tested on: NCI-H522 lung
OVCAR-5 ovarian = tested on: OVCAR-5 ovarian
SF-295 CNS = tested on: SF-295 CNS
SK-MEL-2 melanoma = tested on: SK-MEL-2 melanoma
SN12C renal = tested on: SN12C renal
CCRF-CEM leukemia = tested on: CCRF-CEM leukemia
HCC-2998 colon = tested on: HCC-2998 colon

Structure (SMILES) | TGI (CAKI-1 renal) [µM] | TGI (HOP-92 NSCLC) [µM] | TGI (HS 578T breast) [µM] | TGI (NCI-H522 lung) [µM] | TGI (OVCAR-5 ovarian) [µM] | TGI (SF-295 CNS) [µM] | TGI (SK-MEL-2 melanoma) [µM] | TGI (SN12C renal) [µM] | GI50 (CAKI-1 renal) [µM] | GI50 (CCRF-CEM leukemia) [µM] | TGI (CCRF-CEM leukemia) [µM] | TGI (HCC-2998 colon) [µM] | GI50 (HOP-92 NSCLC) [µM] | GI50 (HS 578T breast) [µM] | GI50 (SF-295 CNS) [µM] | GI50 (SN12C renal) [µM] | GI50 (HCC-2998 colon) [µM] | GI50 (NCI-H522 lung) [µM] | GI50 (OVCAR-5 ovarian) [µM] | GI50 (SK-MEL-2 melanoma) [µM]
O=C(O)C1C(C(=O)O)C23CC2(C(=O)O)C2(C(=O)O)CCC3=C3CCCC312 (stereo not drawn) | 81.9 | 36.5 | 7.8 | 16 | 47.3 | 20.8 | 38.8 | 36.4 | – | – | – | – | – | – | – | – | – | – | – | –
CNC(=O)CC1NC(=O)c2csc(n2)-c2ccc(-c3nc(C4=NC(C(=O)N5CCCC5C(N)=O)CO4)cs3)nc2-c2csc(n2)-c2csc(n2)C(C(C)C)NC(=O)CNC(=O)c2csc(n2)C(C(C)C)NC(=O)c2nc1sc2C (stereo not drawn) | > 25 | > 25 | – | – | – | > 25 | – | > 25 | > 25 | > 25 | > 25 | 2.31 | > 25 | < 0.001 | > 25 | > 25 | – | – | – | –
COC(=O)NN=C1C(C)(C)C(=O)C1(C)C | – | > 100 | – | > 100 | > 100 | > 100 | > 100 | – | – | – | > 100 | > 100 | – | – | – | – | – | – | – | –
Cc1cc(Cc2cc(C)cc(C(C)(C)C)c2O)c(O)c(Cc2cc(C)cc(C(C)(C)C)c2O)c1 | 13.5 | 9.36 | 5.93 | 4.28 | 14.2 | 10.1 | 6.7 | 8.28 | – | – | 8.31 | – | – | – | – | – | – | – | – | –
CN1CC[C@]2(C)c3cc(O)ccc3CC3CCCC1C32C (stereo partly drawn) | > 100 | > 100 | – | > 100 | > 100 | > 100 | – | > 100 | – | – | > 100 | > 100 | – | – | – | – | – | – | – | –
O=C(O)CCC(NC(=O)c1ccccc1)C(=O)O (stereo not drawn) | > 100 | > 100 | – | > 100 | > 100 | > 100 | > 100 | > 100 | – | – | > 100 | > 100 | – | – | – | – | – | – | – | –
Cn1ccc2c(C(=O)c3ccccc3)cccc2c1=O | > 100 | > 100 | – | 81.1 | – | 66.9 | > 100 | > 100 | – | – | > 100 | > 100 | – | – | – | – | – | – | – | –
COc1cc(NC(=O)CSc2nc3ccc(C)cc3c(=O)n2Cc2ccccc2)cc(OC)c1OC | > 100 | – | > 100 | 47 | > 100 | > 100 | 10.6 | > 100 | 5.08 | > 100 | > 100 | > 100 | – | 3.23 | 7.01 | 25.4 | > 100 | 4.63 | 58 | 3.38
O=Cc1ccccc1B(O)O | > 100 | – | 49.3 | 97.9 | > 100 | > 100 | > 100 | > 100 | – | – | 40 | – | – | – | – | – | – | – | – | –
O=C1CCCC(=O)N1CCc1c[nH]c2ccccc12 | > 100 | > 100 | – | – | > 100 | > 100 | > 100 | > 100 | – | – | > 100 | > 100 | – | – | – | – | – | – | – | –
Oc1ccccc1CNCC12CC3CC(CC(C3)C1)C2 | > 100 | 37.9 | 74.4 | – | > 100 | 42.2 | 41.2 | > 100 | 37 | – | – | 26.9 | 9.64 | 19.4 | 19.3 | 32.6 | 12.2 | – | 33 | 20.2
COc1cc(C(O)C(=O)c2nc3ccc([N+](=O)[O-])cc3[nH]c2=O)ccc1O (stereo not drawn) | > 100 | – | – | > 100 | > 100 | > 100 | > 100 | > 100 | – | – | > 100 | > 100 | – | – | – | – | – | – | – | –
C[C@]12CCC(=O)C(O)=C1CC[C@@H]1C2CC[C@]2(C)Nc3c(cnn3-c3ccccc3)CC12 (stereo partly drawn) | > 100 | – | – | – | > 100 | > 100 | > 100 | – | – | – | > 100 | > 100 | – | – | – | – | – | – | – | –
Fc1ccccc1C1SCc2nc3ccccc3n21 (stereo not drawn) | > 100 | 72.7 | – | > 100 | > 100 | > 100 | > 100 | > 100 | – | – | > 100 | > 100 | – | – | – | – | – | – | – | –
CC1=NN(C(=O)CC(=O)NC(=O)CC(=O)Nc2ccccc2F)C(=O)C1N=Nc1ccc([N+](=O)[O-])cc1 (stereo not drawn) | > 100 | > 100 | – | – | > 100 | > 100 | > 100 | > 100 | – | – | 63.6 | > 100 | – | – | – | – | – | – | – | –
O=C1C2C=CC(C2)C(c2ccc(O)cc2)N1O (stereo not drawn) | > 100 | > 100 | – | > 100 | > 100 | > 100 | > 100 | > 100 | – | – | > 100 | > 100 | – | – | – | – | – | – | – | –
S=c1ssc(Oc2ccccc2)c1Cl | 29.5 | 36.2 | – | 42.5 | 49.9 | 28.3 | 83.3 | 28.2 | 16 | 1.02 | 5.84 | 14.7 | 14.8 | – | 15.1 | 11.7 | 3.7 | 23.2 | 23.2 | 33.9
COc1cc(-n2cc(-c3ccc(Cl)cc3)nc2SCc2cccc(C#N)c2)cc(OC)c1OC | > 100 | 86.5 | > 100 | > 100 | > 100 | > 100 | – | > 100 | 38.5 | > 100 | > 100 | > 100 | 18.8 | 34.2 | 48.1 | 46 | > 100 | 47 | > 100 | –
NCCN.NCCN.O=C([O-])CCl.O=C([O-])CCl.[Co+3].[O-][Cl+3]([O-])([O-])[O-] | – | > 100 | – | > 100 | > 100 | > 100 | > 100 | > 100 | – | > 100 | > 100 | > 100 | > 100 | – | > 100 | > 100 | > 100 | > 100 | > 100 | > 100
